Laboratory results taken from the NIST ThermoML archive (doi:10.1021/acs.jced.6b00026).
± gives the expanded uncertainty stated by the source.

Assay: xn = mol fraction of the nth substance listed
Conditions: Fluid (supercritical or subcritical phases), Buoyancy - hydrostatic balance with magnetic suspension - one sinker

CCCCCCCCCCC [undecane] + O=C=O
Conditions | mass density [kg/m3]
333.19 K, 16015 kPa, x2 = 0.8874 | 741.91 ± 0.39
333.21 K, 19000 kPa, x2 = 0.4641 | 752.46 ± 0.38
333.23 K, 16000 kPa, x2 = 0.6797 | 762.53 ± 0.37
343.19 K, 12000 kPa, x2 = 0.2483 | 720.79 ± 0.37
343.2 K, 14004 kPa, x2 = 0.2483 | 722.81 ± 0.38
343.2 K, 17005 kPa, x2 = 0.2483 | 725.76 ± 0.38
343.21 K, 11985 kPa, x2 = 0.6797 | 729.1 ± 0.37
343.24 K, 10010 kPa, x2 = 0.2483 | 718.69 ± 0.37
343.25 K, 13002 kPa, x2 = 0.6797 | 731.82 ± 0.37
343.25 K, 16001 kPa, x2 = 0.4641 | 738.42 ± 0.37
343.26 K, 14997 kPa, x2 = 0.2483 | 723.76 ± 0.38
343.26 K, 17011 kPa, x2 = 0.4641 | 739.9 ± 0.37
343.27 K, 13999 kPa, x2 = 0.6797 | 736.08 ± 0.4
343.27 K, 14997 kPa, x2 = 0.4641 | 736.9 ± 0.37
343.27 K, 17005 kPa, x2 = 0.6797 | 747.33 ± 0.38
343.28 K, 14027 kPa, x2 = 0.8874 | 673.56 ± 0.49
343.28 K, 14995 kPa, x2 = 0.6797 | 739.94 ± 0.39
343.28 K, 15997 kPa, x2 = 0.6797 | 743.79 ± 0.38
343.28 K, 18018 kPa, x2 = 0.6797 | 750.83 ± 0.37
343.3 K, 11002 kPa, x2 = 0.2483 | 719.69 ± 0.37
343.3 K, 11003 kPa, x2 = 0.4641 | 730.57 ± 0.37
343.3 K, 12002 kPa, x2 = 0.4641 | 732.18 ± 0.37
343.3 K, 16007 kPa, x2 = 0.2483 | 724.72 ± 0.38
343.3 K, 18033 kPa, x2 = 0.8874 | 723.56 ± 0.4
343.31 K, 8003 kPa, x2 = 0.4641 | 725.39 ± 0.37
343.31 K, 13003 kPa, x2 = 0.4641 | 733.77 ± 0.37
343.32 K, 7999 kPa, x2 = 0.2483 | 716.46 ± 0.37
343.32 K, 17016 kPa, x2 = 0.8874 | 713.66 ± 0.41
343.32 K, 19002 kPa, x2 = 0.4641 | 742.71 ± 0.38
343.34 K, 9998 kPa, x2 = 0.4641 | 728.83 ± 0.37
343.34 K, 16020 kPa, x2 = 0.8874 | 702.38 ± 0.43
343.34 K, 19012 kPa, x2 = 0.2483 | 727.57 ± 0.38
343.35 K, 15016 kPa, x2 = 0.8874 | 689.29 ± 0.46
343.35 K, 17999 kPa, x2 = 0.4641 | 741.25 ± 0.37
343.37 K, 19004 kPa, x2 = 0.8874 | 731.75 ± 0.39
343.37 K, 19021 kPa, x2 = 0.6797 | 753.8 ± 0.37
343.39 K, 13010 kPa, x2 = 0.2483 | 721.68 ± 0.37
343.4 K, 18008 kPa, x2 = 0.2483 | 726.58 ± 0.38
343.41 K, 14002 kPa, x2 = 0.4641 | 735.22 ± 0.37
353.08 K, 11003 kPa, x2 = 0.2483 | 711.86 ± 0.37
353.09 K, 11995 kPa, x2 = 0.4641 | 721.32 ± 0.37
353.12 K, 10003 kPa, x2 = 0.2483 | 710.71 ± 0.37
353.13 K, 13017 kPa, x2 = 0.2483 | 714.01 ± 0.37
353.13 K, 17994 kPa, x2 = 0.4641 | 731.12 ± 0.37
353.14 K, 16002 kPa, x2 = 0.2483 | 717.14 ± 0.37
353.19 K, 14997 kPa, x2 = 0.4641 | 726.33 ± 0.37
353.23 K, 14005 kPa, x2 = 0.4641 | 724.68 ± 0.37
353.31 K, 8017 kPa, x2 = 0.4641 | 712.03 ± 0.37
353.31 K, 16999 kPa, x2 = 0.2483 | 718.15 ± 0.37
353.33 K, 9996 kPa, x2 = 0.4641 | 717.59 ± 0.37
353.33 K, 18011 kPa, x2 = 0.2483 | 719.15 ± 0.37
353.34 K, 14014 kPa, x2 = 0.2483 | 715.02 ± 0.37
353.34 K, 16078 kPa, x2 = 0.6797 | 710.53 ± 0.42
353.35 K, 14995 kPa, x2 = 0.2483 | 716.05 ± 0.37
353.38 K, 19001 kPa, x2 = 0.4641 | 732.5 ± 0.37
353.39 K, 13004 kPa, x2 = 0.4641 | 722.88 ± 0.37
353.4 K, 7998 kPa, x2 = 0.2483 | 708.29 ± 0.37
353.4 K, 16003 kPa, x2 = 0.4641 | 727.85 ± 0.37
353.4 K, 19017 kPa, x2 = 0.2483 | 720.08 ± 0.38
353.41 K, 11004 kPa, x2 = 0.4641 | 719.34 ± 0.37
353.42 K, 17964 kPa, x2 = 0.6797 | 722.19 ± 0.39
353.43 K, 12003 kPa, x2 = 0.2483 | 712.78 ± 0.37
353.43 K, 15953 kPa, x2 = 0.8874 | 651.24 ± 0.49
353.43 K, 18953 kPa, x2 = 0.8874 | 692.79 ± 0.42
353.43 K, 19052 kPa, x2 = 0.8874 | 691.56 ± 0.41
353.44 K, 15006 kPa, x2 = 0.6797 | 702.5 ± 0.39
353.44 K, 16998 kPa, x2 = 0.4641 | 729.38 ± 0.37
353.44 K, 17006 kPa, x2 = 0.6797 | 716.04 ± 0.41
353.44 K, 19016 kPa, x2 = 0.6797 | 727.96 ± 0.39
353.45 K, 17976 kPa, x2 = 0.8874 | 681.1 ± 0.43
353.46 K, 16003 kPa, x2 = 0.8874 | 649.3 ± 0.49
353.46 K, 17018 kPa, x2 = 0.8874 | 665.72 ± 0.88
353.52 K, 17018 kPa, x2 = 0.8874 | 668.1 ± 0.88
353.52 K, 18000 kPa, x2 = 0.8874 | 678.79 ± 0.43
